Read-outs that look alike come from different tables or passages of the source. Blank lines part the entries; values can stand above or below the compound they belong to.
Key:
[1] = target: T1, monkey NPC1L1 (Macaca mulatta, UniProt A0MJA5); test: Fluorescence NPC1L1 binding assay, HEK-293 cells, BODIPY-labeled compound 1; parameters: species or system rhesus monkey; conditions: for Ki / Ki Monkey NPC1L1: Table 3, Monkey; for Ki: read-out: Ki Monkey NPC1L1
Experimental: (§1) Cell Culture and Membrane Preparation. Each plasmid pCR3.1 harboring NPC1L1 was prepared using standard molecular biology protocols. Stable cell lines expressing human, rhesus monkey, mouse, rat, hamster, canine or rabbit NPC1L1 were generated using Lipofectamine 2000 transfection reagent in HEK-293 cells according to the manufacturer's protocol. Cells were maintained in DMEM supplemented with 10% FBS, 100 U/ml pen/strep, and 500 μg/ml geneticin at 37° C., 5% CO2. All cell culture reagents were obtained from Invitrogen Life Technologies, (Carlsbad, Calif.). Cell membranes were prepared by lysing cells in 5 mM HEPES with protease inhibitors (Complete™ Protease Inhibitor Cocktail Tablets; Roche Diagnostics Corp., Indianapolis Ind.) for 15 min at 4° C. A membrane pellet was obtained by centrifuging the cell lysates at 12,000×g for 25 min. The membranes were resuspended in 5 mM HEPES with protease inhibitors and triturated with a 21G needle.
(§2) Fluorescence. Cells were plated into 384-well black/clear plates (BD Biosciences, Bedford Mass.) for binding experiments the following day. The media was aspirated. […] Media (20 μl) containing the indicated concentration of compound was then added to the wells. […] The binding reaction was allowed to proceed for 4 hours at 37° C. Subsequently the media was aspirated and the cells washed once with PBS.

[2] = target: canine NPC1L1 (Canis lupus familiaris, UniProt A0MJA4); test: as above; conditions: for Ki / Ki Dog NPC1L1: Table 3, Dog; for Ki: read-out: Ki Dog NPC1L1
Experimental: as §1, §2

[3] = target: hamster NPC1L1 (Mesocricetus auratus, UniProt A0MJA8); test: as above; conditions: for Ki / Ki Hamster NPC1L1: Table 3, Hamster; for Ki: read-out: Ki Hamster NPC1L1
Experimental: as §1, §2

[4] = target: T2, human NPC1L1 (Homo sapiens, UniProt Q9UHC9, T1073A); test: as above; conditions: for Ki / Ki Human NPC1L1: Table 3, Human; for Ki: read-out: Ki Human NPC1L1
T2 construct: expressed in transfected cells
T2 sequence (Q9UHC9 22-1332 isoform Q9UHC9-2 T1046A): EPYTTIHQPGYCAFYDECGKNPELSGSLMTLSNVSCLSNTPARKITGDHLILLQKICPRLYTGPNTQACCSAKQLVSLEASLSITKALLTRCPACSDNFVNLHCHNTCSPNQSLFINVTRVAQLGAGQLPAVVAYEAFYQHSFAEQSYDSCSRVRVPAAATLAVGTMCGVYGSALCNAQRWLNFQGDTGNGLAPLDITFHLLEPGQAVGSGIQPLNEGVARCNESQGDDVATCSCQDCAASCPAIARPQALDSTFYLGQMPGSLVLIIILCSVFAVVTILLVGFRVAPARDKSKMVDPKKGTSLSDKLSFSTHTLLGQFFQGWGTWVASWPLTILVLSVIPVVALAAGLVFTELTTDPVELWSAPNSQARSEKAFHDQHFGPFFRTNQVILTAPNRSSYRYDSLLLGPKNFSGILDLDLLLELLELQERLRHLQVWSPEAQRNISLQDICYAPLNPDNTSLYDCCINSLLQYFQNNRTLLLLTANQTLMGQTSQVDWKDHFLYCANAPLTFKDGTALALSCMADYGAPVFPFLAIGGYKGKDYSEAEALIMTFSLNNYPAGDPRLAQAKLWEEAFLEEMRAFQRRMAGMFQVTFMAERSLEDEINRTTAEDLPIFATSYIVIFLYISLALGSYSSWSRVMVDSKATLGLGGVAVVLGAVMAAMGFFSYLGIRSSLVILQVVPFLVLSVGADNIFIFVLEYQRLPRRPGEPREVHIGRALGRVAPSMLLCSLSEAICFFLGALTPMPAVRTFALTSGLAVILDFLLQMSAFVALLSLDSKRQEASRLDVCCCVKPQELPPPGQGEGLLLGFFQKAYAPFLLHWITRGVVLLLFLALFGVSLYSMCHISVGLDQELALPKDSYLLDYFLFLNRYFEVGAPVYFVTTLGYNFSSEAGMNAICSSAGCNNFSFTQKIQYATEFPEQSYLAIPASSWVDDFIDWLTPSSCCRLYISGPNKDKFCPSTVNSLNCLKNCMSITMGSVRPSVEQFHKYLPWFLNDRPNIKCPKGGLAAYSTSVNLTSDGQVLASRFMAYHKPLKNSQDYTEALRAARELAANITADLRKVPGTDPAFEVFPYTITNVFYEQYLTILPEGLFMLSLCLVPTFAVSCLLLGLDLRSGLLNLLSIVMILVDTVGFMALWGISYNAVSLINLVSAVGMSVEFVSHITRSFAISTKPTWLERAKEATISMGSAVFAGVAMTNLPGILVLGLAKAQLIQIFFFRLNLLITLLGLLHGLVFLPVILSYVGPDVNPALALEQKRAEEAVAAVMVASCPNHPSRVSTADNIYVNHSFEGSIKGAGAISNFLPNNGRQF
Experimental: as §1, §2

[5] = target: rabbit NPC1L1 (Oryctolagus cuniculus, UniProt A0MJA7); test: as above; conditions: for Ki / Ki Rabbit NPC1L1: Table 3, Rabbit; for Ki: read-out: Ki Rabbit NPC1L1
Experimental: as §1, §2

[6] = target: T3, rat NPC1L1 (Rattus norvegicus, UniProt Q6T3U3, A349V/E317P/G318E/K324N/L297S); test: as above; conditions: for Ki / Ki Rat NPC1L1: Table 3, Rat; for Ki: read-out: Ki Rat NPC1L1
T3 construct: expressed in transfected cells
Experimental: as §1, §2

[7] = target: T4, mouse NPC1L1 (Mus musculus, UniProt Q6T3U4, N476K); test: Fluorescence NPC1L1 binding assay, HEK-293 cells, fluorescent compound 2 as ligand; conditions: for Kd: saturation binding, mouse NPC1L1; for Ki / Ki Mouse NPC1L1: Table 3, Mouse; for Ki: read-out: Ki Mouse NPC1L1
T4 construct: expressed in transfected cells
Experimental: as §1, §2
In an effort to show binding to mouse NPC1L1, several related ezetimibe analogs were examined as possible alternatives to fluorescently-labeled (BODIPY) ezetimibe glucuronide (compound 1) in the binding assay. Compound 2, which is a fluorescently labeled synthetic precursor for fluorescently-labeled (BODIPY) ezetimibe glucuronide (compound 1; Burnett et al., Bioorganic and Medicinal Chemistry Letters 12:315-318 (2002)), was identified as a viable option for detection of mouse NPC1L1 binding. Compound 2 contains a methyl ester substitution for the carboxylic acid on the glucuronide portion of the molecule (compound structures shown in FIG. 4A).

[8] = target: T2, human NPC1L1; test: Radioligand binding of [3H]-glucuronidated ezetimibe (compound 4) to cell membranes
Experimental: (§3) Cell Culture and Membrane Preparation. […] Cells were maintained in DMEM supplemented with 10% FBS, 100 U/ml pen/strep, and 500 μg/ml geneticin at 37° C., 5% CO2. All cell culture reagents were obtained from Invitrogen Life Technologies, (Carlsbad, Calif.). Cell membranes were prepared by lysing cells in 5 mM HEPES with protease inhibitors (Complete™ Protease Inhibitor Cocktail Tablets; Roche Diagnostics Corp., Indianapolis Ind.) for 15 min at 4° C. A membrane pellet was obtained by centrifuging the cell lysates at 12,000×g for 25 min. […] Radioligand. […] Natl. Acad. Sci. […] Reactions were performed in binding buffer (5 mM HEPES, 5.5 mM glucose, 117 mM NaCl and 5.4 mM KCl, pH 7.4). Cell membranes (50 μg in 20 μl) were added to each well. […] Binding reactions were incubated for 2 hours at 37° C. Samples were transferred to Unifilter-96 GF/C plates (Perkin Elmer, Wellesley Mass.) and filtered using a Brandel harvester (Gaithersburg Md.). […] Liquid scintillant (50 μl; Microscint-20, Perkin Elmer, Wellesley Mass.) was added and the bound radioactivity was measured using a microplate scintillation counter.

[9] = target: T1, monkey NPC1L1; test: as above; parameters: species or system rhesus monkey
Experimental: as §3

[10] = test system: plasma and liver cholesterol; test: Percent cholesterol lowering in plasma and liver; format: in vivo; conditions: hamster
[11] = test system: cholesterol; test: In vivo cholesterol lowering activity
[12] = test system: ^14C-cholesterol absorption; test: Acute cholesterol absorption assay; format: in vivo; conditions: intraduodenal
Experimental: Acute cholesterol absorption assay. ^14C-cholesterol absorption was determined acutely in rats using conditions previously described (Van Heek et al., J. Pharmacol. Exp. Ther. 283: 157-163 (1997)). Compounds were dissolved in rat bile and delivered (1.0 ml) intraduodenally by bolus injection via an intestinal catheter, followed by 1.0 ml saline rinse (0.9%). Following a 30 min incubation, a cholesterol emulsion containing 3 mg cholesterol and 2 μCi ^14C-cholesterol (3 ml) was delivered to each rat as a bolus via intestinal catheter, followed by 1 ml saline rinse. Animals were sacrificed 90 min later and ^14C-cholesterol levels in plasma, liver, intestinal contents, and intestinal wall were determined.

[13] = test system: NPC1L1 orthologs of multiple species; test: Binding to NPC1L1 orthologs of multiple species; conditions: NPC1L1 orthologs of the species tested
Experimental: as §1, §2

Compound: O=C1[C@H](CC[C@H](O)c2ccc(F)cc2)[C@@H](c2ccc(O)cc2)N1c1ccc(I)cc1 [compound 6]
Ki [1]: 1600 nM
Ki [2]: 1430 nM
Ki [3]: 2340 nM
Ki [4]: 4590 nM
Ki [5]: 5000 nM
Ki [6]: 1460 nM
Ki [7]: 16400 nM
cholesterol lowering Liver [10]: 63%
cholesterol lowering Plasma [10]: 22%
in vivo cholesterol lowering activity [11]: exhibiting in vivo cholesterol lowering activity

Compound: O=C(CS[C@H]1C(=O)N(c2ccc(F)cc2)[C@@H]1c1ccc(O)cc1)c1ccc(F)cc1 [compound 7]
Ki [2]: 2300 nM
Ki [3]: 4280 nM
Ki [5]: 5600 nM
Ki [6]: 2100 nM
Ki [7]: 21600 nM
ED50 ([12]; rat, read-out: rat ED50, inhibition of cholesterol absorption): 0.036 mg/kg
cholesterol lowering Liver [10]: 96%
cholesterol lowering Plasma [10]: 47%
NPC1L1 binding activity [13]: decreased
in vivo cholesterol lowering activity [11]: exhibiting in vivo cholesterol lowering activity

Compound: COc1ccc(N2C(=O)[C@H](CCCc3ccccc3)[C@H]2c2ccc(O[C@@H]3O[C@H](COCc4ccccc4)[C@@H](OCc4ccccc4)[C@H](OCc4ccccc4)[C@H]3OCc3ccccc3)cc2)cc1 [compound 8]
Ki Monkey NPC1L1 [1]: In- active
Ki Dog NPC1L1 [2]: In- active
Ki Hamster NPC1L1 [3]: In- active
Ki Human NPC1L1 [4]: In- active
Ki Rabbit NPC1L1 [5]: In- active
Ki Rat NPC1L1 [6]: In- active
Ki Mouse NPC1L1 [7]: In- active
rat ED50, inhibition of cholesterol absorption [12]: In- active
NPC1L1 binding activity [13]: total loss
in vivo cholesterol lowering activity [11]: no in vivo cholesterol lowering activity

Compound: COc1ccc(N2C(=O)[C@H](CCCc3ccccc3)[C@H]2c2ccc(F)cc2)cc1 [compound 9]
Ki Monkey NPC1L1 [1]: In- active
Ki Dog NPC1L1 [2]: In- active
Ki Hamster NPC1L1 [3]: In- active
Ki Human NPC1L1 [4]: In- active
Ki Rabbit NPC1L1 [5]: In- active
Ki Rat NPC1L1 [6]: In- active
Ki Mouse NPC1L1 [7]: In- active
rat ED50, inhibition of cholesterol absorption [12]: In- active
cholesterol lowering Liver [10]: In- active
cholesterol lowering Plasma [10]: In- active
NPC1L1 binding activity [13]: total loss
in vivo cholesterol lowering activity [11]: no in vivo cholesterol lowering activity

Continued, in another order:

Kd ([1]; saturation binding, monkey NPC1L1, 4 h): 46 nM
Kd ([2]; saturation binding, canine NPC1L1, 4 h): 52 nM
Kd ([3]; saturation binding, hamster NPC1L1, 4 h): 49 nM
Kd ([4]; saturation binding, human NPC1L1, 4 h): 61 nM
Kd ([5]; saturation binding, rabbit NPC1L1, 4 h): 151 nM
Kd ([6]; saturation binding, rat NPC1L1, 4 h): 58 nM
Kd [7]: could not be detected
Ki [8]: 2500 nM
Ki [9]: 210 nM
Compound: Cc1cc(C)n2c1C=C1C=CC(CCC(=O)NCC#Cc3ccc(N4C(=O)[C@H](CC[C@H](O)c5ccc(F)cc5)[C@H]4c4ccc(O[C@@H]5O[C@H](C(=O)O)[C@@H](O)[C@H](O)[C@H]5O)cc4)cc3)=[N+]1[B-]2(F)F [compound 1, BODIPY-labeled glucuronidated ezetimibe]

Kd ([7]; read-out: Kd): 118 nM
Ki [8]: 120 nM
Ki [9]: 70 nM
increase in affinity versus compound 1 ([9]; monkey NPC1L1, methyl ester for carboxylic acid): 3 fold
Compound: COC(=O)[C@H]1O[C@@H](Oc2ccc([C@@H]3[C@@H](CC[C@H](O)c4ccc(F)cc4)C(=O)N3c3ccc(C#CCNC(=O)CCC4=[N+]5C(=Cc6c(C)cc(C)n6[B-]5(F)F)C=C4)cc3)cc2)[C@H](O)[C@@H](O)[C@@H]1O [compound 2]

Ki [1]: 370 nM
Ki [2]: 1280 nM
Ki [3]: 1200 nM
Ki [4]: 2150 nM
Ki [5]: 1900 nM
Ki [6]: 542 nM
Ki [7]: 7700 nM
Compound: O=C1[C@H](CC[C@H](O)c2ccc(F)cc2)[C@@H](c2ccc(O[C@@H]3O[C@H](CO)[C@@H](O[C@@H]4O[C@H](CO)[C@@H](O)[C@H](O)[C@H]4O)[C@H](O)[C@H]3O)cc2)N1c1ccc(F)cc1 [compound 5]
cholesterol lowering Liver [10]: 86%
cholesterol lowering Plasma [10]: 36%
in vivo cholesterol lowering activity [11]: exhibiting in vivo cholesterol lowering activity

— patent publication US8212016B2, “NPC1L1 orthologues” (Schering Corporation, priority 2006, dated 2012)
